From US10316050B2, “PT (IV) complexes containing 4,4′-disubstituted-2,2′-bipyridyl and their use in cancer therapy” (THE BOARD OF REGENTS OF THE NEVADA SYSTEM OF HIGHER …, priority 2014, dated 2019) come the findings set out here.

Assay type in all cases: cell-based, human
The test system of one assay is A549 lung cancer cells. As to the kind of experiment: MTS cell viability assay, A549. The note with it: read-out: EC50 (effective concentration that resulted in 50% cell viability). The procedure: (§1) Human breast (HCC38, MCF-7, MDA-MB-231, SK-BR-3, T-47D, and ZR-75-1), lung (A549 and H520), and prostate (DU145 and PC-3) cancer cell lines were obtained from American Culture Type Collection (ATCC). The HCC38, MCF-7, MDA-MB-231, SK-BR-3, T-47D, ZR-75-1, and A549 cells were grown in MEM supplemented with 10% FBS, 25 mM HEPES buffer (pH 7.4), penicillin (100 U/mL), and streptomycin (100 μg/mL). The H520, DU145, and PC-3 cell lines were grown in RPMI-1640 supplemented with 10% FBS, 25 mM HEPES buffer (pH 7.4), penicillin (100 U/mL), and streptomycin (100 μg/mL). All cell lines were maintained at 37° C. in a humidified, 5% CO2 atmosphere.
(§2) Cells were cultured at a density of 2-3.5×10^3 cells per well in flat bottomed 96-well plates in 100 μL of complete growth medium and incubated for 2 days to reach ˜50% confluence. The cells were then treated with solvent or the appropriate drugs (CDDP stock was dissolved in 0.15 M NaCl, carboplatin stock was dissolved in 5% glucose, synthesized Pt(IV) complexes were dissolved in DMSO) for 1 hour, washed three times with 100 μL PBS, and incubated in 100 μL of fresh medium. After 2 days, the medium was replaced with 120 μL of medium containing CellTiter 96® Aqueous One Solution Reagent (MTS reagent) (Promega, Madison, Wis.). The cells were incubated at 37° C. for 4 hours and the cell viability was determined by measuring the absorbance at 490 nm using a Tecan Infinite M1000 microplate reader. The 48 h treatment was done in a similar manner, except the cells were not washed after treatment and the MTS reagent was immediately added. Viability of treated groups was calculated as a percent of control and graphed with GraphPad Prism.
(§3) The anti-proliferative activities of Pt(IV) complexes were determined in two lung (A549 and H520), two prostate (DU145 and PC-3), and six breast (HCC38, MCF-7, MDA-MB-231, SK-BR-3, T-47D, and ZR-75-1) cancer cell lines. The cells were treated with increasing concentrations of cisplatin (CDDP), carboplatin, or the Pt(IV) complexes for 1 or 48 hours, and the viability was measured using an MTS colorimetric cell proliferation assay. Graphs of the results are shown for DU145 (FIG. 8A), PC-3 (FIG. 8B), SK-BR-3 (FIG. 8C), ZR-75-1 (FIG. 8D), A549 (FIG. 8E), and MCF-7 (FIG. 8F).
On the technique in general: Formazan colour is commonly taken as a measure of viable cells.

Assay [1] has as its system DU145 prostate cancer cells. Conditions: for EC50: read-out: EC50 (effective concentration that resulted in 50% cell viability); for anti-proliferative activity compared to cisplatin (in words): DU145, one and 48 hours treatment (FIG. 8H). The procedure:
as §1, §2, §3
(§4) The anti-proliferative activities of certain Pt(II) complexes were determined in DU145, PC-3, and SK-BR-3 cells. The cells were treated with increasing concentrations of cisplatin (CDDP) or the Pt(II) complexes for 1 or 48 hours, and the viability was measured using an MTS colorimetric cell proliferation assay.

Assay [2] deals with MCF-7 breast cancer cells. As to the kind of experiment: MTS cell viability assay, MCF-7. The note with it: read-out: EC50 (effective concentration that resulted in 50% cell viability). As to the method:
as §1, §2, §3

In assay [3] the test system is PC-3 prostate cancer cells. As to the kind of experiment: MTS cell viability assay, PC-3. The note with it: for EC50: read-out: EC50 (effective concentration that resulted in 50% cell viability); for anti-proliferative activity compared to cisplatin (in words): PC-3, one and 48 hours treatment (FIG. 8I). The procedure:
as §1, §2, §3, §4

The test system of the next assay is H520 lung cancer cells. As to the kind of experiment: MTS cell viability assay, H520. Conditions: read-out: EC50 (effective concentration that resulted in 50% cell viability). The procedure: as §1, §2, §3
In assay [4] the test system is SK-BR-3 breast cancer cells. As to the kind of experiment: MTS cell viability assay, SK-BR-3. Conditions: for EC50: read-out: EC50 (effective concentration that resulted in 50% cell viability); for anti-proliferative activity compared to cisplatin (in words): SK-BR-3, one and 48 hours treatment (FIG. 8G). The procedure: as §1, §2, §3, §4
Assay [5] has as its system MDA-MB-231 breast cancer cells. As to the kind of experiment: MTS cell viability assay, MDA-MB-231. Conditions: read-out: EC50 (effective concentration that resulted in 50% cell viability). The procedure:
as §1, §2, §3

In assay [6] the test system is ZR-75-1 breast cancer cells. As to the kind of experiment: MTS cell viability assay, ZR-75-1. Conditions: read-out: EC50 (effective concentration that resulted in 50% cell viability). The procedure:
as §1, §2, §3

Assay [7] has as its system T-47D breast cancer cells. As to the kind of experiment: MTS cell viability assay, T-47D. As to the method: as §1, §2, §3
The subject of assay [8] is HCC38 breast cancer cells. As to the kind of experiment: MTS cell viability assay, HCC38. Conditions: read-out: EC50 (effective concentration that resulted in 50% cell viability). The procedure:
as §1, §2, §3

The mark [9] stands for this setting: SK-BR-3, 1 h treatment, Table 2.
Where [10] appears, read: SK-BR-3, 48 h treatment, Table 4.
Where [11] appears, read: MDA-MB-231, 1 h treatment, Table 2.
[12] abbreviates: MDA-MB-231, 48 h treatment, Table 4.
Setting [13] is: ZR-75-1, 1 h treatment, Table 2.
Setting [14] is: ZR-75-1, 48 h treatment, Table 4.
Where [15] appears, read: 1 h treatment, Table 2, read-out: EC50 (effective concentration that resulted in 50% cell viability).
[16] abbreviates: 48 h treatment, Table 4, read-out: EC50 (effective concentration that resulted in 50% cell viability).

Like-named read-outs stand apart in the source and are kept apart here. Bounds are passed on as bounds.

Turning to `N.N.O=C([O-])C1(C(=O)[O-])CCC1.[Pt+2]` [Carboplatin, carboplatin, reference compound], the EC50 in the assay on A549 lung cancer cells (A549, 1 h treatment, Table 2) was above 1000 µM; in the assay on A549 lung cancer cells (A549, 1 h treatment, Table 3), above 1000 µM; with A549 lung cancer cells (A549, 48 h, Table 5), 300 ± 30 µM; in the assay with A549 lung cancer cells (A549, 48 h treatment, Table 4), 300 ± 30 µM; in [1] (DU145, 1 h treatment, Table 2), above 1000 µM; in assay [1] (DU145, 1 h treatment, Table 3), above 1000 µM. Moreover, the EC50 is 400 ± 100 µM in [1] (DU145, 48 h, Table 5); 400 ± 100 µM in assay [1] (DU145, 48 h treatment, Table 4); above 1000 µM in assay [2] (MCF-7, 1 h treatment, Table 2); above 1000 µM in assay [2] (MCF-7, 1 h treatment, Table 3); 800 ± 100 µM in [2] (MCF-7, 48 h, Table 5); 800 ± 100 µM in [2] (MCF-7, 48 h treatment, Table 4). In addition, the “effect on cell viability (in words)” value in [1] (DU145, 1 hour treatment (FIG. 8A, top), up to 1 mM carboplatin, 100 μM Pt(IV)-1C, 50 μM Pt(IV)-2C) is reported as “no effect”.

Regarding `COc1ccnc(-c2cc(OC)ccn2)c1.[Cl][Pt][Cl]` [Pt(II)-1C], the EC50 in [3] (PC-3, 1 h treatment, Table 2) is above 100 µM; in assay [3] (PC-3, 48 h treatment, Table 4), 40 ± 7 µM; with H520 lung cancer cells (H520, 1 h treatment, Table 2) it was above 100 µM; in the assay on H520 lung cancer cells (H520, 48 h treatment, Table 4), 30 ± 2 µM; in [4] (setting [9]), 19 ± 5 µM; in [4] (setting [10]), 23 ± 2 µM. The EC50 in assay [5] (setting [11]) was above 100 µM; in [5] (setting [12]) it was above 100 µM; in assay [6] (setting [13]), 67 ± 27 µM; in assay [6] (setting [14]), 26 ± 1 µM; in the assay with A549 lung cancer cells (A549, 1 h treatment, Table 2) it was above 100 µM; in the assay with A549 lung cancer cells (A549, 48 h treatment, Table 4), above 100 µM. Also, the EC50 turned out to be 40 ± 10 µM in assay [1] (DU145, 1 h treatment, Table 2); 24 ± 2 µM in assay [1] (DU145, 48 h treatment, Table 4); 20 ± 1 µM in assay [7] (setting [15]); 21 ± 1 µM in [7] (setting [16]); 80 ± 20 µM in [8] (HCC38, 1 h treatment, Table 2); 57 ± 2 µM in [8] (HCC38, 48 h treatment, Table 4). The EC50 in assay [2] (MCF-7, 1 h treatment, Table 2) is above 100 µM; in [2] (MCF-7, 48 h treatment, Table 4), above 100 µM.

As for `CCOc1ccnc(-c2cc(OCC)ccn2)c1.[Cl][Pt][Cl]` [Pt(II)-2C], the EC50 is 22 ± 5 µM in [3] (PC-3, 1 h treatment, Table 2); 21 ± 7 µM in assay [3] (PC-3, 48 h treatment, Table 4); above 100 µM with H520 lung cancer cells (H520, 1 h treatment, Table 2); 21 ± 1 µM in the assay on H520 lung cancer cells (H520, 48 h treatment, Table 4); 2.2 ± 0.2 µM in [4] (setting [9]); 1.8 µM in assay [4] (setting [10]). Further, the EC50 was 30 ± 20 µM in assay [5] (setting [11]); 20 ± 6 µM in assay [5] (setting [12]); 58 ± 15 µM in [6] (setting [13]); 16.5 µM in assay [6] (setting [14]); above 100 µM with A549 lung cancer cells (A549, 1 h treatment, Table 2); 66 ± 7 µM in the assay with A549 lung cancer cells (A549, 48 h treatment, Table 4). Also, the EC50 in assay [1] (DU145, 1 h treatment, Table 2) was 20 ± 5 µM; in [1] (DU145, 48 h treatment, Table 4) it was 11 ± 4 µM; in assay [7] (setting [15]), 5 ± 2 µM; in [7] (setting [16]), 2.2 ± 0.4 µM; in assay [8] (HCC38, 1 h treatment, Table 2), 18 ± 4 µM; in assay [8] (HCC38, 48 h treatment, Table 4), 20 ± 3 µM. Also, the EC50 is above 100 µM in [2] (MCF-7, 1 h treatment, Table 2) and above 100 µM in assay [2] (MCF-7, 48 h treatment, Table 4).

For `CCCOc1ccnc(-c2cc(OCCC)ccn2)c1.[Cl][Pt][Cl]` [Pt(II)-3C], the EC50 was found to be 5 ± 1 µM in assay [3] (PC-3, 1 h treatment, Table 2); 5.1 ± 0.8 µM in [3] (PC-3, 48 h treatment, Table 4); 40 ± 20 µM in the assay on H520 lung cancer cells (H520, 1 h treatment, Table 2); 13 ± 5 µM in the assay with H520 lung cancer cells (H520, 48 h treatment, Table 4); 1.81 ± 0.03 µM in assay [4] (setting [9]); 1.73 ± 0.01 µM in assay [4] (setting [10]). Moreover, the EC50 in [5] (setting [11]) was 4 ± 2 µM; in assay [5] (setting [12]) it was 2.2 ± 0.1 µM; in assay [6] (setting [13]), 8.9 ± 0.4 µM; in assay [6] (setting [14]) it was 5 ± 1 µM; in the assay on A549 lung cancer cells (A549, 1 h treatment, Table 2) it was 48 ± 3 µM; in the assay with A549 lung cancer cells (A549, 48 h treatment, Table 4) it was 17 ± 1 µM. Besides, the EC50 in [1] (DU145, 1 h treatment, Table 2) amounted to 6 ± 1 µM; in assay [1] (DU145, 48 h treatment, Table 4), 4 ± 2 µM; in [7] (setting [15]), 2.4 ± 0.1 µM; in assay [7] (setting [16]) it was 1.9 ± 0.1 µM; in [8] (HCC38, 1 h treatment, Table 2), 3 ± 2 µM; in assay [8] (HCC38, 48 h treatment, Table 4) it was 4.7 ± 0.5 µM. Moreover, the EC50 was 100 µM in [2] (MCF-7, 1 h treatment, Table 2) and 19 ± 4 µM in assay [2] (MCF-7, 48 h treatment, Table 4).

In the case of `CCOCCOCCOC(=O)c1ccnc(-c2cc(C(=O)OCCOCCOCC)ccn2)c1.[Cl][Pt][Cl]` [Pt(II)-COO(C2O)2C2], the “anti-proliferative activity compared to cisplatin (in words)” value in assay [3], in [4] and in assay [1] was “not as effective as cisplatin” each time. Besides, the “reduction in cell viability, one hour versus 48 hours treatment” value in assay [4] (SK-BR-3 (FIG. 8G)) was “greater reduction in cell viability than when they were treated for 48 hours”.

With `COC(=O)c1ccnc(-c2cc(C(=O)OC)ccn2)c1.[Cl][Pt][Cl]` [Pt(II)-COOC1], the “anti-proliferative activity compared to cisplatin (in words)” value in assay [3], in assay [4] and in assay [1] was “generally more effective than cisplatin” in each case.

For the compound `CCOC(=O)c1ccnc(-c2cc(C(=O)OCC)ccn2)c1.[Cl][Pt][Cl]` [Pt(II)-COOC2], the “anti-proliferative activity compared to cisplatin (in words)” value in assay [3], in assay [4] and in [1] was “generally more effective than cisplatin” each time.

Consider `CCCCCCCCOC(=O)c1ccnc(-c2cc(C(=O)OCCCCCCCC)ccn2)c1.[Cl][Pt][Cl]` [Pt(II)-COOC8], for which the “anti-proliferative activity compared to cisplatin (in words)” value in assay [3], in assay [4] and in [1] was “generally more effective than cisplatin” throughout.
